Source: patent publication US8148422B2, “Sulfonamides as TRPM8 modulators” (Janssen Pharmaceutica, NV, priority 2008, dated 2012)

Target: T1, canine TRPM8 (Canis lupus familiaris, UniProt Q1A7N1)
T1 construct: expressed in transfected cells
Test: In vitro canine TRPM8 functional assay (Ca2+-sensitive fluorescent dye, FLIPR or FDSS, icilin challenge)
Assay type: cell-based
Conditions: HEK293 cells stably expressing canine TRPM8; for inhibition at 0.2 µM: 0.2 μM compound, icilin challenge; for IC50: icilin at approx. 80% maximal response, eight-point dose-response, single determinations unless otherwise noted, read-out: IC50
Experimental: The functional activity of compounds of the formula (I) was determined by measuring changes in intracellular calcium concentration using a Ca^2+-sensitive fluorescent dye. The changes in fluorescent signal were monitored by a fluorescence plate reader, either a FLIPR™ (Molecular Devices) or FDSS (Hamamatsu).
At 24 hrs prior to assay, HEK293 cells stably expressing canine TRPM8 were seeded in culture medium in black wall, clear-base poly-D-lysine coated 384-well plates (BD Biosciences, NJ, USA) and grown overnight in 5% CO2 at 37° C. On assay day, growth media was removed and cells were loaded with Calcium 3 Dye (Molecular Devices) for 35 min at 37° C., under 5% CO2 and then for 25 min at room temperature and atmosphere. Subsequently, cells were tested for agonist-induced increases in intracellular Ca^2+ levels using FLIPR™ or FDSS. Cells were challenged with a compound of the Formula (I) (at varying concentrations) and intracellular Ca^2+ was measured for 5 min prior to the addition of icilin to all wells to achieve a final concentration that produces approximately an 80% maximal response. EC50 or IC50 values for compounds of the present invention were determined from eight-point dose-response studies. Curves were generated using the average of quadruplicate wells for each data point.

T1 sequence (Q1A7N1 1-1104): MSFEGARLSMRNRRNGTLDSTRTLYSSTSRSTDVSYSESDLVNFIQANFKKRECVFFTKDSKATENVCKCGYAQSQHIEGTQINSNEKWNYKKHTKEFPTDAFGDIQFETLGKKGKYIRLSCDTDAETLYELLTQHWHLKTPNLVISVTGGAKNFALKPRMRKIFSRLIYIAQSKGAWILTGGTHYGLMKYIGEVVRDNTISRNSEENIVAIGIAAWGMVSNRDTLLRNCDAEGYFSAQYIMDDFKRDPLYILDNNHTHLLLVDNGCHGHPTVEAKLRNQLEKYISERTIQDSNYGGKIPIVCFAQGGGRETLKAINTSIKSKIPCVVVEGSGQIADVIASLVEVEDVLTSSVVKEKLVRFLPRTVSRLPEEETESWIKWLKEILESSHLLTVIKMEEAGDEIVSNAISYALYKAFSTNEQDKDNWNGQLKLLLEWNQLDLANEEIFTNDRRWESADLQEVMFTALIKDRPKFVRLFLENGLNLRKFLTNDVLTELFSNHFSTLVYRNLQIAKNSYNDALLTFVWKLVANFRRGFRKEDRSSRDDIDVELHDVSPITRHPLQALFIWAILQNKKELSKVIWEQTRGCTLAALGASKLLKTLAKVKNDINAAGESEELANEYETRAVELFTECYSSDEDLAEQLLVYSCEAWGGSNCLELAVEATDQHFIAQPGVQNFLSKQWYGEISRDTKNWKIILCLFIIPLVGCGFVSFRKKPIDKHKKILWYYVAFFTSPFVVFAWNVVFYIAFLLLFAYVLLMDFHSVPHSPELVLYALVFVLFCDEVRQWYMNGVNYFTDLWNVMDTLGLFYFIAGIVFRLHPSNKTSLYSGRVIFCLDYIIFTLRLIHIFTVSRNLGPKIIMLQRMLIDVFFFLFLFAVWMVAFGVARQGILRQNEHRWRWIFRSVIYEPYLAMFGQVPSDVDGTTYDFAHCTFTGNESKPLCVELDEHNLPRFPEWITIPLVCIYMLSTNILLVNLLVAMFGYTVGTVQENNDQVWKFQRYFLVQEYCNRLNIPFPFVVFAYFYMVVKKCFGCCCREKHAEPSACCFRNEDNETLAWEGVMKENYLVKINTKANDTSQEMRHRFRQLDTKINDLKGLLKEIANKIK

Row | Compound | inhibition at 0.2 µM [%] | IC50 [nM]
1 | CC(C)CN(CCS(=O)(=O)N(Cc1ccc(OC(F)(F)F)cc1)c1sc2ccccc2c1Br)CC(C)C [Cpd 63, N-(3-Bromobenzo[b]thiophen-2-yl)-N-(4-trifluoromethoxy-benzyl)-2-(di-iso-butylamino)ethylsulfonamide] | 101 | 6
2 | O=S(=O)(CCN1CCCCC1)N(Cc1ccc(OC(F)(F)F)cc1)c1sc2ccccc2c1Br [Cpd 64, N-(3-Bromobenzo[b]thiophen-2-yl)-N-(4-trifluoromethoxy-benzyl)-2-(N-piperidinyl)ethylsulfonamide] | 101 | 27
3 | CC(=O)N1CCN(CCS(=O)(=O)N(Cc2ccc(OC(F)(F)F)cc2)c2sc3ccccc3c2Br)CC1 [Cpd 65, N-(3-Bromobenzo[b]thiophen-2-yl)-N-(4-trifluoromethoxy-benzyl)-2-(4-acetyl-1-piperazinyl)ethylsulfonamide] | 101 | 41
4 | O=S(=O)(CCN1CCSCC1)N(Cc1ccc(OC(F)(F)F)cc1)c1sc2ccccc2c1Br [Cpd 66, N-(3-Bromobenzo[b]thiophen-2-yl)-N-(4-trifluoromethoxy-benzyl)-2-(thiomorpholin-4-yl)ethylsulfonamide] | 100 | 29
5 | O=S(=O)(CCN1CCCC(F)(F)C1)N(Cc1ccc(OC(F)(F)F)cc1)c1sc2ccccc2c1Br [Cpd 67, N-(3-Bromobenzo[b]thiophen-2-yl)-N-(4-trifluoromethoxy-benzyl)-2-(3,3-difluoropiperidin-1-yl)ethylsulfonamide] | 102 | 9
6 | O=S(=O)(CCN1CCC(F)(F)C1)N(Cc1ccc(OC(F)(F)F)cc1)c1sc2ccccc2c1Br [Cpd 68, N-(3-Bromobenzo[b]thiophen-2-yl)-N-(4-trifluoromethoxy-benzyl)-2-(3,3-difluoropyrrolidin-1-yl)ethylsulfonamide] | 102 | 72
7 | Cc1c(N(Cc2ccc(F)cc2)S(=O)(=O)CCN2CCCC(F)(F)C2)sc2ccccc12 [Cpd 69, N-(3-Methyl-benzo[b]thiophen-2-yl)-N-(4-fluoro-benzyl)-2-(3,3-difluoropiperidin-1-yl)-ethylsulfonamide] | 99 | 12
8 | Cc1c(N(Cc2ccc(F)c(C(F)(F)F)c2)S(=O)(=O)CCN2CCCC(F)(F)C2)sc2ccccc12 [Cpd 70, N-(3-Methylbenzo[b]thiophen-2-yl)-N-(4-fluoro-3-trifluoromethyl-benzyl)-2-(3,3-difluoropiperidin-1-yl)ethylsulfonamide] | 100 | 4
9 | Cc1c(N(Cc2ccc(OC(F)(F)F)cc2)S(=O)(=O)CCN2CCC[C@H]2C(F)(F)F)sc2ccccc12 [Cpd 71, N-(3-Methylbenzo[b]thiophen-2-yl)-N-(4-trifluoromethoxy-benzyl)-2-[2(S)-trifluoromethyl-pyrrolidin-1-yl]ethylsulfonamide] | 100 | 4
10 | Cc1c(N(Cc2ccc(OC(F)(F)F)cc2)S(=O)(=O)CCN2CCC[C@@H]2C(F)(F)F)sc2ccccc12 [Cpd 72, N-(3-Methylbenzo[b]thiophen-2-yl)-N-(4-trifluoromethoxy-benzyl)-2-[2(R)-trifluoromethyl-pyrrolidin-1-yl]ethylsulfonamide] | 100 | 10
11 | Cc1c(N(Cc2ccc(OC(F)(F)F)cc2)S(=O)(=O)CCNCC(C)C)sc2ccccc12 [Cpd 73, N-(3-Methylbenzo[b]thiophen-2-yl)-N-(4-trifluoromethoxy-benzyl)-2-(isobutylamino)ethylsulfonamide] | 19 | 
12 | Cc1c(N(CCC2CC2)S(=O)(=O)CCN(C)Cc2ccccc2)sc2ccccc12 [Cpd 75, N-(3-Methylbenzo[b]thiophen-2-yl)-N-(2-cyclopropyl-ethyl)-2-(benzyl-methylamino)ethylsulfonamide] | 89 | 59
13 | Cc1c(N(Cc2ccc(F)cc2)S(=O)(=O)CCN(CC(C)C)CC(C)C)sc2ccccc12 [Cpd 76, N-(3-Methylbenzo[b]thiophen-2-yl)-N-(4-fluoro-benzyl)-2-(di-iso-butylamino)ethylsulfonamide] | 99 | 25
14 | Cc1c(N(Cc2ccc(F)cc2)S(=O)(=O)CCN(C)Cc2ccccc2)sc2ccccc12 [Cpd 77, N-(3-Methylbenzo[b]thiophen-2-yl)-N-(4-fluoro-benzyl)-2-(benzyl-methylamino)ethylsulfonamide] | 97 | 49
15 | Cc1c(N(CCCCC(F)(F)F)S(=O)(=O)CCN(C)Cc2ccccc2)sc2ccccc12 [Cpd 79, N-(3-Methylbenzo[b]thiophen-2-yl)-N-(5,5,5-trifluoro-n-pent-1-yl)-2-(benzyl-methylamino)ethylsulfonamide] | 98 | 37
16 | Cc1c(N(Cc2ccc(F)c(F)c2)S(=O)(=O)CCN(C)Cc2ccccc2)sc2ccccc12 [Cpd 81, N-(3-Methylbenzo[b]thiophen-2-yl)-N-(3,4-difluoro-benzyl)-2-(benzyl-methylamino)ethylsulfonamide] | 101 | 36
17 | CCCN(CCS(=O)(=O)N(Cc1ccc(OC(F)(F)F)cc1)c1sc2ccccc2c1C)CC(C)C [Cpd 82, N-(3-Methylbenzo[b]thiophen-2-yl)-N-(4-trifluoromethoxy-benzyl)-2-(isobutyl-propylamino)ethylsulfonamide] | 100 | 16
18 | CCN(CCS(=O)(=O)N(Cc1ccc(OC(F)(F)F)cc1)c1sc2ccccc2c1C)CC(C)C [Cpd 83, N-(3-Methylbenzo[b]thiophen-2-yl)-N-(4-trifluoromethoxy-benzyl)-2-(isobutyl-ethylamino)ethylsulfonamide] | 99 | 17
19 | CCOC(=O)C1CCN(CCS(=O)(=O)N(CCC2CC2)c2sc3ccccc3c2C)CC1 [Cpd 84, N-(3-Methylbenzo[b]thiophen-2-yl)-N-(2-cyclopropyl-ethyl)-2-(4-carboethoxypiperidin-1-yl)ethylsulfonamide] | 97 | 72
20 | CCOC(=O)C1CCN(CCS(=O)(=O)N(CCCCC(F)(F)F)c2sc3ccccc3c2C)CC1 [Cpd 85, N-(3-Methylbenzo[b]thiophen-2-yl)-N-(5,5,5-trifluoropent-1-yl)-2-(4-carboethoxypiperidin-1-yl)ethylsulfonamide] | 77 | 81
21 | Cc1c(N(CCCCC(F)(F)F)S(=O)(=O)CCN2CCC(C(=O)O)CC2)sc2ccccc12 [Cpd 86, N-(3-Methylbenzo[b]thiophen-2-yl)-N-(5,5,5-trifluoropent-1-yl)-2-(4-carboxypiperidin-1-yl)ethylsulfonamide] | 34 | 
22 | Cc1c(N(CCC2CC2)S(=O)(=O)CCN2CCC(C(=O)O)CC2)sc2ccccc12 [Cpd 87, N-(3-Methylbenzo[b]thiophen-2-yl)-N-(2-cyclopropylethyl)-2-(4-carboxypiperidin-1-yl)ethylsulfonamide] | 29 | 
23 | CC(=O)N(CCS(=O)(=O)N(CCCCC(F)(F)F)c1sc2ccccc2c1C)CC(C)C [Cpd 88, N-(3-Methylbenzo[b]thiophen-2-yl)-N-(5,5,5-trifluoro-n-pent-1-yl)-2-(N-acetyl-isobutylamino)ethylsulfonamide] | 91 | 59
24 | CCN(CCS(=O)(=O)N(CCCCC(F)(F)F)c1sc2ccccc2c1C)CC(C)C [Cpd 89, N-(3-Methylbenzo[b]thiophen-2-yl)-N-(5,5,5-tritluoro-n-pent-1-yl)-2-(ethyl-isobutylamino)ethylsulfonamide] | 99 | 36
25 | CCC(=O)N(CCS(=O)(=O)N(CCCCC(F)(F)F)c1sc2ccccc2c1C)CC(C)C [Cpd 90, N-(3-Methylbenzo[b]thiophen-2-yl)-N-(5,5,5-trifluoro-n-pent-1-yl)-2-(N-propionoyl-isobutylamino)ethylsulfonamide] | 92 | 44
26 | CCCN(CCS(=O)(=O)N(CCCCC(F)(F)F)c1sc2ccccc2c1C)CC(C)C [Cpd 91, N-(3-Methylbenzo[b]thiophen-2-yl)-N-(5,5,5-tritluoro-n-pent-1-yl)-2-(n-propyl-isobutylamino)ethylsulfonamide] | 99 | 50
27 | CC(=O)N(CCS(=O)(=O)N(CCC1CC1)c1sc2ccccc2c1C)CC(C)C [Cpd 92, N-(3-Methylbenzo[b]thiophen-2-yl)-N-(2-cyclopropyl-ethyl)-2-(N-acetyl-isobutylamino)ethylsulfonamide] | 101 | 35
28 | CCC(=O)N(CCS(=O)(=O)N(CCC1CC1)c1sc2ccccc2c1C)CC(C)C [Cpd 93, N-(3-Methylbenzo[b]thiophen-2-yl)-N-(2-cyclopropyl-ethyl)-2-(N-propionoyl-isobutylamino)ethylsulfonamide] | 100 | 43
29 | CCN(CCS(=O)(=O)N(CCC1CC1)c1sc2ccccc2c1C)CC(C)C [Cpd 94, N-(3-Methylbenzo[b]thiophen-2-yl)-N-(2-cyclopropyl-ethyl)-2-(ethyl-isobutylamino)ethylsulfonamide] | 103 | 27
